Test system: 616215-338-R-J1-PDC complex spheroid viability
Test: Anticancer human tumor 616215-338-R-J1-PDC patient-derived colon adenocarcinoma cell line growth inhibition [RAS]
Details: for IC50: curve of first compound; for viability, T/C: stronger effect = lower value
In short: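 Tumour cells grown as complex spheroids with HUVEC endothelial cells and mesenchymal stem cells, treated with RAS pathway inhibitor combinations. Each agent spans half-log steps from near clinical Cmax, or 10 microM where Cmax is unknown.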
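Note: spheroids exposed to agents for seven days before viability readout.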
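Throughout, for viability, T/C: 100% = DMSO vehicle control viability.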

C=CC(=O)N1CCN(c2nc(OCC3CCCN3C)nc3c(F)c(-c4nc(N)cc(C)c4C(F)(F)F)c(Cl)cc23)C(C)C1 (centres undefined) + C#Cc1c(F)ccc2cc(O)cc(-c3ncc4c(N5CC6CCC(C5)N6)nc(OCC56CCCN5CC(F)C6)nc4c3F)c12
IC50 (second compound 0.0316 µM): > 1000 nM | IC50 (second compound 0.1 µM): > 1000 nM | IC50 (second compound 0.316 µM): > 1000 nM | IC50 (second compound 1 µM): > 1000 nM | IC50 (second compound 3.16 µM): > 1000 nM | IC50 (second compound 10 µM): > 1000 nM | viability, T/C (second compound 0.0316 µM, first compound 0.00316 µM): 107% | viability, T/C (second compound 0.0316 µM, first compound 0.01 µM): 112% | viability, T/C (second compound 0.0316 µM, first compound 0.0316 µM): 101% | viability, T/C (second compound 0.0316 µM, first compound 0.1 µM): 106% | viability, T/C (second compound 0.0316 µM, first compound 0.316 µM): 100% | viability, T/C (second compound 0.0316 µM, first compound 1 µM): 104% | viability, T/C (second compound 0.1 µM, first compound 0.00316 µM): 121% | viability, T/C (second compound 0.1 µM, first compound 0.01 µM): 105% | viability, T/C (second compound 0.1 µM, first compound 0.0316 µM): 109% | viability, T/C (second compound 0.1 µM, first compound 0.1 µM): 107% | viability, T/C (second compound 0.1 µM, first compound 0.316 µM): 108% | viability, T/C (second compound 0.1 µM, first compound 1 µM): 102% | viability, T/C (second compound 0.316 µM, first compound 0.00316 µM): 112% | viability, T/C (second compound 0.316 µM, first compound 0.01 µM): 104% | viability, T/C (second compound 0.316 µM, first compound 0.0316 µM): 109% | viability, T/C (second compound 0.316 µM, first compound 0.1 µM): 112% | viability, T/C (second compound 0.316 µM, first compound 0.316 µM): 107% | viability, T/C (second compound 0.316 µM, first compound 1 µM): 112% | viability, T/C (second compound 1 µM, first compound 0.00316 µM): 122% | viability, T/C (second compound 1 µM, first compound 0.01 µM): 123% | viability, T/C (second compound 1 µM, first compound 0.0316 µM): 114% | viability, T/C (second compound 1 µM, first compound 0.1 µM): 120% | viability, T/C (second compound 1 µM, first compound 0.316 µM): 124% | viability, T/C (second compound 1 µM, first compound 1 µM): 109% | viability, T/C (second compound 3.16 µM, first compound 0.00316 µM): 125% | viability, T/C (second compound 3.16 µM, first compound 0.01 µM): 107% | viability, T/C (second compound 3.16 µM, first compound 0.0316 µM): 109% | viability, T/C (second compound 3.16 µM, first compound 0.1 µM): 112% | viability, T/C (second compound 3.16 µM, first compound 0.316 µM): 109% | viability, T/C (second compound 3.16 µM, first compound 1 µM): 105% | viability, T/C (second compound 10 µM, first compound 0.00316 µM): 102% | viability, T/C (second compound 10 µM, first compound 0.01 µM): 93.8% | viability, T/C (second compound 10 µM, first compound 0.0316 µM): 92.8% | viability, T/C (second compound 10 µM, first compound 0.1 µM): 99.3% | viability, T/C (second compound 10 µM, first compound 0.316 µM): 110% | viability, T/C (second compound 10 µM, first compound 1 µM): 93%

CC1(C)CCC(Nc2ncc(C(F)(F)F)c(-c3c[nH]c4c(P(C)(C)=O)c(C#N)ccc34)n2)CN1 (centres undefined) + C#Cc1c(F)ccc2cc(O)cc(-c3ncc4c(N5CC6CCC(C5)N6)nc(OCC56CCCN5CC(F)C6)nc4c3F)c12
IC50 (second compound 0.0316 µM): 19 nM | IC50 (second compound 0.1 µM): 13.4 nM | IC50 (second compound 0.316 µM): 18.9 nM | IC50 (second compound 1 µM): 10.7 nM | IC50 (second compound 3.16 µM): 8.28 nM | IC50 (second compound 10 µM): 5.91 nM | viability, T/C (second compound 0.0316 µM, first compound 0.000949 µM): 103% | viability, T/C (second compound 0.0316 µM, first compound 0.003 µM): 112% | viability, T/C (second compound 0.0316 µM, first compound 0.00949 µM): 70.1% | viability, T/C (second compound 0.0316 µM, first compound 0.03 µM): 37.4% | viability, T/C (second compound 0.0316 µM, first compound 0.0949 µM): 35.9% | viability, T/C (second compound 0.0316 µM, first compound 0.3 µM): 36.8% | viability, T/C (second compound 0.1 µM, first compound 0.000949 µM): 107% | viability, T/C (second compound 0.1 µM, first compound 0.003 µM): 105% | viability, T/C (second compound 0.1 µM, first compound 0.00949 µM): 56.7% | viability, T/C (second compound 0.1 µM, first compound 0.03 µM): 37.7% | viability, T/C (second compound 0.1 µM, first compound 0.0949 µM): 31.8% | viability, T/C (second compound 0.1 µM, first compound 0.3 µM): 28.2% | viability, T/C (second compound 0.316 µM, first compound 0.000949 µM): 109% | viability, T/C (second compound 0.316 µM, first compound 0.003 µM): 105% | viability, T/C (second compound 0.316 µM, first compound 0.00949 µM): 66.5% | viability, T/C (second compound 0.316 µM, first compound 0.03 µM): 40.5% | viability, T/C (second compound 0.316 µM, first compound 0.0949 µM): 32.3% | viability, T/C (second compound 0.316 µM, first compound 0.3 µM): 31.9% | viability, T/C (second compound 1 µM, first compound 0.000949 µM): 117% | viability, T/C (second compound 1 µM, first compound 0.003 µM): 108% | viability, T/C (second compound 1 µM, first compound 0.00949 µM): 52.1% | viability, T/C (second compound 1 µM, first compound 0.03 µM): 31.2% | viability, T/C (second compound 1 µM, first compound 0.0949 µM): 27.8% | viability, T/C (second compound 1 µM, first compound 0.3 µM): 31.2% | viability, T/C (second compound 3.16 µM, first compound 0.000949 µM): 109% | viability, T/C (second compound 3.16 µM, first compound 0.003 µM): 89.3% | viability, T/C (second compound 3.16 µM, first compound 0.00949 µM): 45.8% | viability, T/C (second compound 3.16 µM, first compound 0.03 µM): 27.8% | viability, T/C (second compound 3.16 µM, first compound 0.0949 µM): 34.1% | viability, T/C (second compound 3.16 µM, first compound 0.3 µM): 36.7% | viability, T/C (second compound 10 µM, first compound 0.000949 µM): 96.5% | viability, T/C (second compound 10 µM, first compound 0.003 µM): 69.3% | viability, T/C (second compound 10 µM, first compound 0.00949 µM): 37.5% | viability, T/C (second compound 10 µM, first compound 0.03 µM): 24.7% | viability, T/C (second compound 10 µM, first compound 0.0949 µM): 32.5% | viability, T/C (second compound 10 µM, first compound 0.3 µM): 31.7%

Source: PubChem BioAssay AID2060898 (Molecular Pharmacology Branch, DTP, NCI, 2025)
